Test results: US20240382516A1, “PHARMACEUTICAL COMPOSITION FOR INCREASING MITOCHONDRIAL ACTIVITY AND/OR IMPROVING ADIPONECTIN PRODUCTION” (LOGICK ENERGETICS B.V., priority 2021, published 2024)

Key:
Assay type in all cases: cell-based
[1] = tested on: Adiponectin gene expression in 3T3-L1 cells; assay: qPCR adiponectin gene expression in 3T3-L1 cells; conditions: 72 hours incubation, A 5.0 μg/ml, B 50 μM, C 1.0 μM
Method: • DMEM • 10% heat inactivated FCS • Compound A—5.0 μg/ml • Compound B-50 μM • Compound C-1.0 μM • Compound A+B • Compound A+C Protocol 3T3-L1 cell line • DMEM • 10% heat inactivated FCS • Compound A-[…] • Compound B-50 μM • Compound C-1.0 μM • Compound A+B • Compound A+C
In the of presence of: • 0.25 μM Dexamethasone & • 1 μg/ml Insulin • Therein A=pentosan, B=indomethacin, and C=pioglitazone.
Cells were stimulated at day 4 when they were sub confluent. After 72 hours of incubation, RNA was isolated from the cells.

Ppargc1a = Ppargc1a log2Foldchanges, RNA isolated from stimulated KS-cells; conditions: for effect on changes in Ppargc1a activity (in words): 3 and 7 days stimulation
Source text: Therein A=pentosan, B-indomethacin, and C=pioglitazone. The RNA is isolated after 3 and 7 days stimulation in KS-cells, respectively. Ppargcla is considered particularly relevant for mitochondrial activity. A higher value represents a higher activity.

[2] = tested on: Cox family of sub-unit proteins of mitochondrial complex 4; assay: Gene expression Log2fold change, Cox family, KS483 cells; conditions: 7 days of stimulation
[3] = tested on: Nduf family of sub-unit proteins of mitochondrial complex 1; assay: Gene expression Log2fold change, Nduf family, KS483 cells; conditions: 7 days of stimulation

COc1ccc2c(c1)c(CC(=O)O)c(C)n2C(=O)c1ccc(Cl)cc1 [Compound B, indomethacin]
show adiponectin gene expression: effect on Adiponectin gene expression (FIG. 1) [1]
0: COX4iL Log2fold change [2] | COX5a Log2fold change [2] | COX5b Log2fold change [2] | COX6b1 Log2fold change [2] | COX7a2L Log2fold change [2] | COX8a Log2fold change [2] | COX15 Log2fold change [2] | COX17 Log2fold change [2] | COX19 Log2fold change [2] | COX20 Log2fold change [2] | Nduf4 0 Log2fold change [3] | Ndufa5 Log2fold change [3] | Ndufa9 Log2fold change [3] | Ndufa10 Log2fold change [3] | Ndufab1 Log2fold change [3] | Ndufaf7 Log2fold change [3] | Ndufb3 Log2fold change [3] | Ndufb4 Log2fold change [3] | Ndufb9 Log2fold change [3] | Ndufb10 Log2fold change [3] | Ndufc1 Log2fold change [3] | Ndufs10 Log2fold change [3] | Ndufs20 Log2fold change [3] | Ndufv1 Log2fold change [3] | Ndufv3 Log2fold change [3]
no measurable effect: effect on changes in Ppargc1a activity (in words) (Ppargc1a)

CCc1ccc(CCOc2ccc(CC3SC(=O)NC3=O)cc2)nc1 (stereo not drawn) [Compound C, pioglitazone]
0.57: Ndufa5 Log2fold change [3]
0.35: Ndufaf7 Log2fold change [3]
0: COX4iL Log2fold change [2] | COX5a Log2fold change [2] | COX5b Log2fold change [2] | COX6b1 Log2fold change [2] | COX7a2L Log2fold change [2] | COX8a Log2fold change [2] | COX15 Log2fold change [2] | COX17 Log2fold change [2] | COX19 Log2fold change [2] | COX20 Log2fold change [2] | Nduf4 0 Log2fold change [3] | Ndufa9 Log2fold change [3] | Ndufa10 Log2fold change [3] | Ndufab1 Log2fold change [3] | Ndufb3 Log2fold change [3] | Ndufb4 Log2fold change [3] | Ndufb9 Log2fold change [3] | Ndufb10 Log2fold change [3] | Ndufc1 Log2fold change [3] | Ndufs10 Log2fold change [3] | Ndufs20 Log2fold change [3] | Ndufv1 Log2fold change [3] | Ndufv3 Log2fold change [3]

pentosan polysulphate [Compound A]
−0.42: COX7a2L Log2fold change [2]
some effect: effect on changes in Ppargc1a activity (in words) (Ppargc1a)
1.14: Ppargc1a log2Foldchanges (Ppargc1a; 3 days stimulation)
hardly any effect: effect on Adiponectin gene expression (FIG. 1) [1]
0: COX4iL Log2fold change [2] | COX5b Log2fold change [2] | COX6b1 Log2fold change [2] | COX8a Log2fold change [2] | COX15 Log2fold change [2] | COX17 Log2fold change [2] | COX19 Log2fold change [2] | COX20 Log2fold change [2] | Nduf4 0 Log2fold change [3] | Ndufa5 Log2fold change [3] | Ndufa9 Log2fold change [3] | Ndufa10 Log2fold change [3] | Ndufab1 Log2fold change [3] | Ndufaf7 Log2fold change [3] | Ndufb3 Log2fold change [3] | Ndufb4 Log2fold change [3] | Ndufb9 Log2fold change [3] | Ndufb10 Log2fold change [3] | Ndufc1 Log2fold change [3] | Ndufs10 Log2fold change [3] | Ndufs20 Log2fold change [3] | Ndufv1 Log2fold change [3] | Ndufv3 Log2fold change [3]
0.31: COX5a Log2fold change [2]
1.3: Ppargc1a log2Foldchanges (Ppargc1a; 7 days stimulation)
